Experimental data published in US20150133493A1, “COUMARIN-BASED COMPOUNDS FOR THE TREATMENT OF ALZHEIMER'S DISEASE AND CANCER” (Sloan-Kettering Institute for Cancer Research, priority 2008, published 2015).

Experiments:
γ-secretase [1] = target: T1, γ-secretase (Homo sapiens, UniProt P49768); assay: In vitro γ-secretase activity assay, Aβ40 production (ECL); type: biochemical
T1 construct: endogenous in cells
Protocol: (§1) FIG. 2. In vitro characterization of coumarin-dimer allosteric GSIs against various γ-secretase cleavage products. The potency of 7 unique coumarin-based γ-secretase inhibitors were evaluated for efficacy against γ-secretase-mediated production of Aβ40, Aβ42, Aβ38, and Notch. Additionally, the pan-GSI Compound E was also examined in these assays. The IC50 values were calculated from the dose response curves using a non-linear regression analysis in Prism software. IC50 values are presented with standard deviation (n=3 for each data point). The three β-amyloid-detection in vitro assays were modified from our previously reported assay (21) using a biotinylated substrate that eliminated the requirement of anti-β-amyloid biotinylated antibody. Ruthenylated antibodies that detected the -40, -42, or -38 cleavage site were incorporated to detect proteolysis indicative of γ-secretase activity. In vitro Notch assay utilized a recombinant transmembrane portion of the Notch peptide and anti-Notch1 SM320 antibody in conjunction with ruthenylated anti-rabbit secondary antibodies. Electrochemiluminescence was quantified on an Analyzer (BioVeris). The selectivity ratio for Aβ42 inhibition over Aβ40 and Notch are indicated in the two far right columns.
The assay protocol employed was a modified version of that described in Li et al., 2000, Proc. Nat'l Acad. Sci. USA 97:6183-643, incorporated herein by reference. Briefly, recombinant peptide substrate was incubated with γ-secretase (40 μg/ml) in the presence or absence of test compound. The reaction mixture contained 0.25% CHAPSO, 0.1 μg/μl BSA, protease inhibitor, 50 mM PIPES, pH 7.0, 5 mM MgCl2, 5 mM CaCl2 and 150 mM KCl. The reaction was incubated for 2.5 hr at 37° C. and stopped by adding RIPA buffer (150 mM NaCl, 1.0% NP-40, 0.5% sodium deoxycholate, 0.1% SDS, 50 mM Tris HCl, pH 8.0). The products were detected with various antibody combinations using electrochemiluminescence (ECL) technology as previously described in Li et al., 2000, Proc. Nat'l Acad. Sci. USA 97:6183-643; Lai et al., 2003, J. Biol. Chem. 278: 22475-22481; and Yin et al., 2007, J. Biol. Chem. 282:23639-23644. The amount of product was determined using synthetic peptide or recombinant standards.
(§2) Cell membranes and solubilized γ-secretase were prepared as described previously (36). The in vitro and cell γ-secretase assays detecting either Aβ38, Aβ40, or Aβ42 cleavage were performed similar as previously described (21, 36). Cleaved product was detected using ruthenylated antibodies that recognize specific APP cleavage sites (Aβ31-38*, G2-10*, or G2-11* antibody for Aβ38, Aβ40, or Aβ42 respectively). The Km and Vmax in the presence and absence of γ-secretase inhibitors were analyzed by non-linear curve fit using the software SigmaPlot 8.0 with the Michaelis-Menten equation (v=Vm [S]/(Km+[S]; v: initial rate; Vm: maximum velocity; Km: the Michaelis-Menten constant, S: substrate).

[2] = tested on: cells stably transfected with APP; assay: Cell-based assay for production of Aβ38, Aβ40 and Aβ42 peptides (Example 29, FIG. 1); details: increasing concentrations of compound
Protocol: The following cell-based assay can be used for assessing inhibitory activity of test compounds on γ-secretase activity on APP expressed in stably transfected cells. Cells such as HEK239 or N2A cells that stably express APP are incubated 24-48 hr. in medium to which is added γ-secretase with or without test compound. The conditioned medium is collected. Secreted Aβ peptides are detected by electrochemiluminescence (ECL) technology as previously described, for example, in Li et al., 2000, Proc. Nat'l Acad. Sci. USA 97:6183-643; Lai et al., 2003, J. Biol. Chem. 278: 22475-22481; and Yin et al., 2007, J. Biol. Chem. 282:23639-23644. Concentration of Aβ peptides can be calculated from standard curves that are generated using synthetic peptides using the ECL assay.
Results of a cell-based assay are provided in FIG. 1 in which cells stably transfected with APP were incubated in medium containing γ-secretase activity and the indicated amounts of compound 37.

γ-secretase [3] = target: T1, γ-secretase; assay: In vitro γ-secretase activity assay, Aβ42 production (ECL); type: biochemical; details: in vitro inhibition of γ-secretase activity that generates Aβ42; 2.5 hr at 37° C., ECL detection
Protocol: as §1, with “The potency of 7 unique coumarin-based γ-secretase inhibitors were evaluated for efficacy against γ-secretase-mediated production of Aβ40, Aβ42, Aβ38, and Notch. Additionally, the pan-GSI Compound E was also examined in these assays.” left out, “IC50 values are presented with standard deviation (n=3 for each data point).” left out, “(BioVeris).” for “(BioVeris). The selectivity ratio for Aβ42 inhibition over Aβ40 and Notch are indicated in the two far right columns.”
Briefly, recombinant peptide substrate was incubated with γ-secretase (40 μg/ml) in the presence or absence of test compound. […] The reaction was incubated for 2.5 hr at 37° C. and stopped by adding RIPA buffer (150 mM NaCl, 1.0% NP-40, 0.5% sodium deoxycholate, 0.1% SDS, 50 mM Tris HCl, pH 8.0). […] The amount of product was determined using synthetic peptide or recombinant standards.
as §2

γ-secretase [4] = target: T1, γ-secretase; assay: Inhibition kinetic analysis in the in vitro γ-secretase activity assay; type: biochemical; details: APP-transmembrane domain substrate
Protocol: FIG. 4. Kinetic analysis of allosteric GSIs and evaluation of their effect on the γ-secretase active site architecture. (a) Kinetic analysis of CS1 was performed using our modified version of a previously reported in vitro γ-secretase activity assay. The inhibition kinetics were analyzed by using a non-linear curve fit with the Michaelis-Menten equation. Upper right inset: we replotted slopes against the inhibitor concentrations after performing double reciprocal conversion. (b) Schematic representation of the allosteric binding of the di-coumarin compounds to γ-secretase. This binding ultimately causes an alteration at the active site of γ-secretase. Black rectangle represents the coumarin-dimer compound. (c) The binding of L458 to the active site of γ-secretase and its interaction at various subpockets within the enzyme. […]
as §2, with “The in vitro and cell γ-secretase assays detecting either Aβ38, Aβ40, or Aβ42 cleavage were performed similar as previously described (21, 36).” left out

γ-secretase [5] = target: T1, γ-secretase; details: reference (22); cited from earlier work
γ-secretase active site = target: T2, γ-secretase active site (Homo sapiens, UniProt P49768); assay: Photolabeling of the γ-secretase active site (PS1-NTF) in HeLa membrane with probes L646, GY4, JC8, L505; type: binding; details: L458 and Compound E at 2 μM, CS-1 up to 100 μM
T2 construct: endogenous in cells; host or cells: HeLa membrane
Protocol: FIG. 4. Kinetic analysis of allosteric GSIs and evaluation of their effect on the γ-secretase active site architecture. (a) Kinetic analysis of CS1 was performed using our modified version of a previously reported in vitro γ-secretase activity assay. The inhibition kinetics were analyzed by using a non-linear curve fit with the Michaelis-Menten equation. Upper right inset: we replotted slopes against the inhibitor concentrations after performing double reciprocal conversion. (b) Schematic representation of the allosteric binding of the di-coumarin compounds to γ-secretase. This binding ultimately causes an alteration at the active site of γ-secretase. Black rectangle represents the coumarin-dimer compound. (c) The binding of L458 to the active site of γ-secretase and its interaction at various subpockets within the enzyme. (d) Chemical structure of the four photoaffinity probes utilized in the characterization of CS-1 effect on active site architecture. Hydroxyethylamine and benzophenone moieties are marked by blue and red, respectively. (e) Evaluation of CS-1 effect on the photolabeling of four probes. […] (f) Evaluation of CS-2 effect on the active site photolabeling by L505 and GY4. (g) Effect of Compound E on active site photolabling. […] Blotting was performed for PS1-NTF. The photolabeling blots are representative and were performed in triplicate.
We hypothesized that the allosteric binding of the di-coumarin compounds alters the conformation of the active site of γ-secretase and thereby preferentially affects the Aβ42 site cleavage (FIG. 4b). This raised the technical issue of how to probe the contours of the enzymatic active site. Although the structure of γ-secretase has been determined by cryoelectron microscopy (23), the resolution attained is not sufficient to investigate subtle changes within the active site. Consequently, we developed a series of active-site directed inhibitors that incorporate a photoreactive benzophenone entity into varied positions. Using these photoreactive probes, we assessed the effect of the di-coumarin inhibitor binding on the active site of γ-secretase. Since the efficiency of photoinsertion depends on the orientation of the probe and the proximity of residues within the active site, conformational change of the active site can alter the orientation of the probe and contact residues and lead to altered cross-linking efficiencies. Therefore, multiple photoactivatable, active-site directed GSIs will provide a practical approach to evaluate the changes within the active site following allosteric di-coumarin binding.
L458 contains a hydroxyethylamine transition-state isostere that mimics the tetrahedral intermediate of aspartyl proteases and this moiety hydrogen bonds with the catalytic aspartate residues of γ-secretase (20). According to the nomenclature of Schechter and Berger (24), L458 contains the P2, P1, P1′, P2′ and P3′ residues that putatively bind to the S2, S1, S1′, S2′ and S3′ subsites, respectively, within the active site of γ-secretase (FIG. 4c). We have developed a series of biotinylated, photoactivatable inhibitors based on the core structure of L458 that allow us to probe the sub-pockets of the γ-secretase active site (3, 25-26). These inhibitors all have an individual benzophenone group incorporated into L458 at either the P2, P1, P1′, or P3′ position and are referred to as L646, GY4, JC8 and L505 (FIG. 4d). Each of these inhibitors interacts and labels the S2, S1, S1′, and S3′ subsites, respectively, within the γ-secretase complex (FIG. 4c-d).
HeLa membrane was incubated with CHAPSO detergent and photoaffinity probe in the presence or absence of excess L458 or CS-1. Labeled presenilin was isolated using streptavidin beads, separated by SDS-PAGE and subsequently western blotted using anti-PS1-NTF antibodies. Again, presenilin is believed to contain the active site of γ-secretase, therefore we examined PS1 photolabeling. […]

Structure (SMILES)	IC50 (γ-secretase [1]; in vitro inhibition of γ-secretase activity that generates Aβ40, 2.5 hr at 37° C., ECL detection)	Aβ40/Aβ42 ratio (γ-secretase [1]; ratio of IC50 for Aβ40 to IC50 for Aβ42)	amount of Aβ38 secreted from the cells [2]	amount of Aβ40 secreted from the cells [2]	amount of Aβ42 secreted from the cells [2]	IC50 (γ-secretase [3])	mode of inhibition against APP-TM substrate (γ-secretase [4])	mode of inhibition when the C100 substrate is used (γ-secretase [5])	effect on JC-8 photolabeling of PS1-NTF (S1′ subsite) (γ-secretase active site)	effect on L646 photolabeling of PS1-NTF (S2 subsite) (γ-secretase active site)	effect on GY-4 photolabeling of PS1-NTF (S1 subsite) (γ-secretase active site; CS-2 at 100 μM)	effect on L505 photolabeling of PS1-NTF (S3′ subsite) (γ-secretase active site; CS-2 at 100 μM)
O=c1oc2ccccc2c(O)c1C(c1cc(F)c(F)c(F)c1)c1c(O)c2ccccc2oc1=O [Compound 37]	0.6 µM	3.0	remain relatively constant	remain relatively constant	decrease	0.2 µM						
CC(C)C[C@H](NC(=O)[C@H](Cc1ccccc1)C[C@@H](O)[C@H](Cc1ccccc1)NC(=O)OC(C)(C)C)C(=O)N[C@@H](Cc1ccccc1)C(N)=O [L-685,458]							competitive inhibitor	non-competitive inhibitor	completely blocked	completely blocked	completely blocked	completely blocked
